How the values were obtained:
[1] = Stability test in buffer (pH 7.4); format: physicochemical; conditions: phosphate buffer/acetonitrile 7:3, 100 mM potassium phosphate buffer (pH 7.4) and acetonitrile 7:3 (v/v), LC/MS; for remaining at 10 min: 10 minutes at 37°C, read-out: Buf. remaining rate (%/10min); for remaining at 1 h: 60 minutes at 37°C, read-out: Buf. remaining rate (%/60min)
Summary of the method: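 Parent compound measured by LC/MS after 0, 10 or 60 min at 37°C in a 7:3 (v/v) mix of 100 mM potassium phosphate buffer and acetonitrile, with the reaction stopped by acetonitrile plus formic acid (final 0.1%). Percentage remaining is expressed relative to the zero-time amount.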

[2] = Metabolic stability test in liver S9; format: in vitro ADME; conditions: pH 7.4, human liver S9 2 mg protein/mL, LC/MS; for remaining at 10 min: unchanged form after 10 minutes at 37°C, read-out: Remaining rate in human liver S9 (%/10min); for remaining at 1 h: unchanged form after 60 minutes at 37°C, read-out: Remaining rate in human liver S9 (%/60min)
Summary of the method: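 Compound from DMSO solution was incubated at 37°C with human liver S9 (final 2 mg protein/mL) in 100 mM potassium phosphate pH 7.4 with an NADPH-regenerating system for 0, 10 and 60 minutes. Reactions were stopped with acetonitrile/0.1% formic acid. Unchanged compound was measured by LC/MS as remaining rate (%) relative to zero time.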

[3] = Metabolic stability test in plasma; format: in vitro ADME, human; conditions: LC/MS; for remaining at 10 min: unchanged form after 10 minutes at 37°C in human plasma, read-out: Remaining rate in human plasma (%/10min); for remaining at 1 h: unchanged form after 60 minutes at 37°C in human plasma, read-out: Remaining rate in human plasma (%/60min)
Summary of the method: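 Remaining rate (%) versus zero time was derived from LC/MS measurement of parent compound after centrifugation. Plasma from human, mouse and hamster received DMSO-dissolved compound and was held at 37°C for 0, 10 or 60 minutes before acetonitrile containing formic acid (final 0.1%) stopped the reaction.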

[4] = molecular target: T1, Microsomal triglyceride transfer protein (MTP) from human small intestine microsome (Homo sapiens, UniProt P55157); assay: Inhibition test of interliposomal triglyceride (TG) transfer activity by MTP; format: biochemical; conditions: purified MTP from human small intestine microsome, 14C-triolein donor/acceptor liposomes, 37 °C for 1.5 hours
T1 construct: Human small intestine microsome was dialyzed against 10 mM phosphate buffer; tissue Tissue Transforming Technologies, Inc; host or cells: Human small intestine microsomes, dialysed, centrifuged, and the supernatant purified on DEAE Sepharose (FPLC)
T1 sequence (P55157 19-894): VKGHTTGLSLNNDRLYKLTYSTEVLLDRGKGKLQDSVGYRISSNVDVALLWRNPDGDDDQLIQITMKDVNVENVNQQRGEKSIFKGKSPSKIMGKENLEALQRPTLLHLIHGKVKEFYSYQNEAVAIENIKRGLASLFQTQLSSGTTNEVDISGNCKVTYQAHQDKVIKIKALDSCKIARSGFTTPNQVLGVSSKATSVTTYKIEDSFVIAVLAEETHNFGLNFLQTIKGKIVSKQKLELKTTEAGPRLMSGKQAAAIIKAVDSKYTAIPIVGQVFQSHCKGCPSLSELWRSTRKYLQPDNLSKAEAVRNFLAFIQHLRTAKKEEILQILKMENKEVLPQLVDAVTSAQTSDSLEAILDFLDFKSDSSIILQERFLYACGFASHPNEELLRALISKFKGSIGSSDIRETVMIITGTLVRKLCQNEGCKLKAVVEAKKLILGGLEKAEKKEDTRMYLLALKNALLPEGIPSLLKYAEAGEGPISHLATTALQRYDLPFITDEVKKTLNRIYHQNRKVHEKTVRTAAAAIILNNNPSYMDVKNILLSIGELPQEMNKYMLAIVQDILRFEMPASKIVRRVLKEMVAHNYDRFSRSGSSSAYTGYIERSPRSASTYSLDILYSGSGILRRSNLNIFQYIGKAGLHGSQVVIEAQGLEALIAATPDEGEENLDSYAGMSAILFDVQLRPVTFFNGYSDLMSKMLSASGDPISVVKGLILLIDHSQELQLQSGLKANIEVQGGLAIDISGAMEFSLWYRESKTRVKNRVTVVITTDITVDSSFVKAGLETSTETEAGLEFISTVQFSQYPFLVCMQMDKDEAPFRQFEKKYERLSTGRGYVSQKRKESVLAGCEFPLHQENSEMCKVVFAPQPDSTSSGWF
T1 sequence (P07237 18-508 partner): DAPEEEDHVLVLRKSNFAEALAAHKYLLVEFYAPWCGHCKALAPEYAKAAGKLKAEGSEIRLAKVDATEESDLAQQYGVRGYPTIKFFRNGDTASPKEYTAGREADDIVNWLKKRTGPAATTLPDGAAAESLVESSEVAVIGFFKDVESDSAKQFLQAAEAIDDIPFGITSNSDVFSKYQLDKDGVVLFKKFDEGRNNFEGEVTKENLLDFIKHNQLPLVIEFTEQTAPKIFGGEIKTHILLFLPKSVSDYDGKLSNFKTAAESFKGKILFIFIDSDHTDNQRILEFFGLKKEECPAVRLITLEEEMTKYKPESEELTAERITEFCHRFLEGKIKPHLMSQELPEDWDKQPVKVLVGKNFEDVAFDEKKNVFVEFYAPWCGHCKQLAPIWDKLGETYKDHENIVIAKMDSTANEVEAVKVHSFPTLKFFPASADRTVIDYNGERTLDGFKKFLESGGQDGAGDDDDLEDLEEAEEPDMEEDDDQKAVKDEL
Text: Firstly, in order to prepare the donor, there were volatilized under a stream of nitrogen gas a phosphatidylcholine solution containing phosphatidylcholine labeled with ^3H, a cardiolipin solution, and a triolein solution containing triolein labeled with ^14C (each solution had been already dissolved in an appropriate organic solvent), or in order to prepare the acceptor, there were volatilized under nitrogen flow a phosphatidylcholine solution containing phosphatidylcholine labeled with ^3H and a cardiolipin solution (each solution had been already dissolved in an appropriate organic solvent). An appropriate amount of a reaction buffer (15 mM Tris-HCl buffer containing 1 mM EDTA.Na2, 40 mM NaCl, and 0.5% (w/v) bovine serum albumin, pH 7.4) was added thereto to be emulsified. […] Each of the resulting supernatant was used for donor or acceptor.
Each radioactivity in the acceptor and the donor was measured by liquid scintillation counter, and a mixed solution of the acceptor and the donor was prepared with a reaction buffer so as to be a donor-derived radioactivity of 16,000 dpm/400 µL and a acceptor-derived radioactivity of 4,000 dpm/400 µL. 400 µL of the mixed solution of the donor and the acceptor, 45 µL of the reaction buffer, 50 µL of MTP (20 µg/mL), and 5 µL of a sample dissolved in DMSO (dimethyl sulfoxide) or 5 µL of DMSO was mixed (total amount: 500 µL). The mixture was incubated at 37 °C for 1.5 hours. […] The radioactivity in the acceptor was measured by liquid scintillation counter. The value obtained by subtracting the radioactivity in a blank group from the radioactivity in the acceptor of a DMSO group was determined as MTP-mediated TG transfer activity, and it was compared with the value obtained by subtracting the radioactivity in the blank group from the radioactivity in a sample group. […] Inhibition rate (%) was calculated from values obtained according to the following equation. Inhibition rate(%) = (1 minus ((radioactivity of sample group minus radioactivity of blank group)/(radioactivity of DMSO group minus radioactivity of blank group))) × 100.

**Q.** For `COC(=O)c1ccc(OC(=O)CCCc2ccc(NC(=O)c3ccc(C)cc3-c3ccc(C(F)(F)F)cc3)c(C(=O)N(C)C)c2)cc1` [Compound 1-9, 4-(4-{3-dimethylcarbamoyl-4-[(5-methyl-4'-trifluoromethylbiphenyl-2-carbonyl)amino]phenyl}butyryloxy) benzoic acid methyl ester], which remaining at 10 min [1] is on record?
**A.** 94%

**Q.** And the remaining at 1 h [1]?
**A.** 97%

**Q.** And the remaining at 10 min [2]?
**A.** 0%

**Q.** What about the remaining at 1 h [2] of the same compound?
**A.** 0%

**Q.** And the remaining at 10 min [3]?
**A.** 34%

**Q.** And the remaining at 1 h [3]?
**A.** 0%

**Q.** And the “Human intestine MTP (IC50(nM))” value [4]?
**A.** ++ +

**Q.** For `CCOC(=O)c1cc(OC)c(OC(=O)CCCc2ccc(NC(=O)c3ccc(C)nc3-c3ccc(C(F)(F)F)cc3)c(C(=O)N(C)C)c2)c(C(=O)OC)c1` [Compound 1-54, 4-[4-(3-dimethylcarbamoyl-4-{[6-methyl-2-(4-trifluoromethylphenyl)pyridine-3-carbonyl]amino}phenyl)butyryloxy]-5-methoxyisophthalic acid 1-ethyl ester 3-methyl ester], which remaining at 10 min [1] is on record?
**A.** 97%

**Q.** What about the remaining at 1 h [1] of the same compound?
**A.** 105%

**Q.** What about the remaining at 10 min [2] of the same compound?
**A.** 10%

**Q.** What about the remaining at 1 h [2] of the same compound?
**A.** 2%

**Q.** What about the remaining at 10 min [3] of the same compound?
**A.** 0%

**Q.** What about the remaining at 1 h [3] of the same compound?
**A.** 0%

**Q.** What about the “Human intestine MTP (IC50(nM))” value [4] of the same compound?
**A.** + ++

**Q.** For `COC(=O)c1cc(C)c(OC(=O)CCCc2ccc(NC(=O)c3ccc(C)nc3-c3ccc(C(F)(F)F)cc3)c(C(=O)N(C)C)c2)c(C(=O)OC)c1` [Compound 1-110, 4-[4-(3-dimethylcarbamoyl-4-{[6-methyl-2-(4-trifluoromethylphenyl)pyridine-3-carbonyl]amino}phenyl)butyryloxy]-5-methylisophthalic acid dimethyl ester], which remaining at 10 min [1] is on record?
**A.** 99%

**Q.** And the remaining at 1 h [1]?
**A.** 102%

**Q.** And the remaining at 10 min [2]?
**A.** 5%

**Q.** And the remaining at 1 h [2]?
**A.** 0%

**Q.** And the remaining at 10 min [3]?
**A.** 26%

**Q.** And the remaining at 1 h [3]?
**A.** 0%

**Q.** Which remaining at 10 min [1] does the source give for `COC(=O)c1cc(C(=O)OC(C)C)cc(C)c1OC(=O)CCCc1ccc(NC(=O)c2ccc(C)nc2-c2ccc(C(F)(F)F)cc2)c(C(=O)N(C)C)c1` [Compound 1-111, 4-[4-(3-dimethylcarbamoyl-4-{[6-methyl-2-(4-trifluoromethylphenyl)pyridine-3-carbonyl]amino}phenyl)butyryloxy]-5-methylisophthalic acid 1-isopropyl ester 3-methyl ester] here?
**A.** 99%

**Q.** And the remaining at 1 h [1]?
**A.** 99%

**Q.** And the remaining at 10 min [2]?
**A.** 41%

**Q.** What about the remaining at 1 h [2] of the same compound?
**A.** 3%

**Q.** And the remaining at 10 min [3]?
**A.** 30%

**Q.** And the remaining at 1 h [3]?
**A.** 0%

**Q.** Which results are given for `CCOC(=O)c1cc(C)c(OC(=O)CCCc2ccc(NC(=O)c3ccc(C)nc3-c3ccc(C(F)(F)F)cc3)c(C(=O)N(C)C)c2)c(Cl)c1` [Compound 1-112, 3-chloro-4-[4-(3-dimethylcarbamoyl-4-{[6-methyl-2-(4-trifluoromethylphenyl)pyridine-3-carbonyl]amino}phenyl)butyryloxy]-5-methylbenzoic acid ethyl ester]?
**A.** remaining at 10 min [1]: 99%; remaining at 1 h [1]: 100%; remaining at 10 min [2]: 27%; remaining at 1 h [2]: 8%; remaining at 10 min [3]: 48%; remaining at 1 h [3]: 0%

**Q.** What does the source list for `COc1cc(C(=O)OCC(=O)N(C)C)cc(Cl)c1OC(=O)CCCc1ccc(NC(=O)c2ccc(C)nc2-c2ccc(C(F)(F)F)cc2)c(C(=O)N(C)C)c1` [Compound 1-113, 3-chloro-4-[4-(3-dimethylcarbamoyl-4-{[6-methyl-2-(4-trifluoromethylphenyl)pyridine-3-carbonyl]amino}phenyl)butyryloxy]-5-methoxybenzoic acid dimethylcarbamoylmethyl ester]?
**A.** remaining at 10 min [1]: 103%; remaining at 1 h [1]: 104%; remaining at 10 min [2]: 8%; remaining at 1 h [2]: 2%; remaining at 10 min [3]: 1%; remaining at 1 h [3]: 0%

**Q.** What does the source list for `COc1cc(C(=O)OCCNC(C)=O)cc(Cl)c1OC(=O)CCCc1ccc(NC(=O)c2ccc(C)nc2-c2ccc(C(F)(F)F)cc2)c(C(=O)N(C)C)c1` [Compound 1-114, 3-chloro-4-[4-(3-dimethylcarbamoyl-4-{[6-methyl-2-(4-trifluoromethylphenyl)pyridine-3-carbonyl]amino}phenyl)butyryloxy]-5-methoxybenzoic acid 2-acetylaminoethyl ester]?
**A.** remaining at 10 min [1]: 104%; remaining at 1 h [1]: 108%; remaining at 10 min [2]: 14%; remaining at 1 h [2]: 3%; remaining at 10 min [3]: 2%; remaining at 1 h [3]: 0%

**Q.** Which remaining at 10 min [1] does the source give for `CC(C)n1nnc(-c2ccc(OC(=O)CCCc3ccc(NC(=O)c4ccccc4-c4ccc(C(F)(F)F)cc4)c(C(=O)N(C)C)c3)cc2)n1` [Compound 1-115, 4-(3-dimethylcarbamoyl-4-{(4'-trifluoromethylbiphenyl-2-carbonyl)amino}phenyl)butyric acid 4-(2-isopropyl-2H-tetrazol-5-yl)phenyl ester] here?
**A.** 98%

**Q.** And the remaining at 1 h [1]?
**A.** 98%

**Q.** What about the remaining at 10 min [2] of the same compound?
**A.** 0%

**Q.** And the remaining at 1 h [2]?
**A.** 0%

**Q.** What about the remaining at 10 min [3] of the same compound?
**A.** 85%

**Q.** What about the remaining at 1 h [3] of the same compound?
**A.** 40%

**Q.** With `COC(=O)c1ccc(OC(=O)CN(C)Cc2ccc(NC(=O)c3ccccc3-c3ccc(C(F)(F)F)cc3)c(C(=O)N(C)C)c2)cc1` [Compound 2-1, 4-[2-({3-dimethylcarbamoyl-4-[(4'-trifluoromethylbiphenyl-2-carbonyl)amino]benzyl}methylamino)acetoxy]benzoic acid methyl ester] as the compound, how does the remaining at 10 min [1] read?
**A.** 95%

**Q.** And the remaining at 1 h [1]?
**A.** 95%

**Q.** And the remaining at 10 min [2]?
**A.** 0%

**Q.** What about the remaining at 1 h [2] of the same compound?
**A.** 0%

**Q.** And the remaining at 10 min [3]?
**A.** 47%

**Q.** What about the remaining at 1 h [3] of the same compound?
**A.** 0%

**Q.** Which results are given for `COC(=O)c1ccc(OC(=O)C2CCN(c3ccc(NC(=O)c4ccccc4-c4ccc(C(F)(F)F)cc4)c(C(=O)N(C)C)c3)CC2)cc1` [Compound 3-1, 1-(3-dimethylcarbamoyl-4-[(4'-trifluoromethylbiphenyl-2-carbonyl)amino]phenyl}piperidine-4-carboxylic acid 4-methoxycarbonylphenyl ester]?
**A.** remaining at 10 min [1]: 98%; remaining at 1 h [1]: 102%; remaining at 10 min [2]: 2%; remaining at 1 h [2]: 0%; remaining at 10 min [3]: 63%; remaining at 1 h [3]: 6%

**Q.** Which remaining at 10 min [1] does the source give for `COC(=O)c1ccc(OC(=O)C2CCN(c3ccc(NC(=O)c4ccccc4-c4ccc(C(F)(F)F)cc4)c(C(=O)N(C)C)c3)CC2)c(F)c1` [Compound 3-2, 1-{3-dimethylcarbamoyl-4-[(4'-trifluoromethylbiphenyl-2-carbonyl)amino]phenyl}piperidine-4-carboxylic acid 2-fluoro-4-methoxycarbonylphenyl ester] here?
**A.** 94%

**Q.** What about the remaining at 1 h [1] of the same compound?
**A.** 97%

**Q.** What about the remaining at 10 min [2] of the same compound?
**A.** 2%

**Q.** And the remaining at 1 h [2]?
**A.** 0%

**Q.** What about the remaining at 10 min [3] of the same compound?
**A.** 24%

**Q.** And the remaining at 1 h [3]?
**A.** 0%

**Q.** Which remaining at 10 min [1] does the source give for `COC(=O)c1ccc(-c2nc(C)ccc2C(=O)Nc2ccc(CCCC(=O)Oc3c(C)cc(C(=O)OC)cc3Cl)cc2C(=O)N(C)C)cc1` [Compound 4-1, 3-chloro-4-[4-(3-dimethylcarbamoyl-4-{[2-(4-methoxycarbonylphenyl)-6-methylpyridine-3-carbonyl]amino}phenyl)butyryloxy]-5-methylbenzoic acid methyl ester] here?
**A.** 99%

**Q.** And the remaining at 1 h [1]?
**A.** 101%

**Q.** What about the remaining at 10 min [2] of the same compound?
**A.** 0%

**Q.** And the remaining at 1 h [2]?
**A.** 0%

**Q.** What about the remaining at 10 min [3] of the same compound?
**A.** 25%

**Q.** And the remaining at 1 h [3]?
**A.** 0%

**Q.** With `COC(=O)c1ccc(-c2nc(C)ccc2C(=O)Nc2ccc(CCCC(=O)Oc3c(C)cc(C(=O)OC)cc3C(=O)OC)cc2C(=O)N(C)C)cc1` [Compound 4-2, 4-[4-(3-dimethylcarbamoyl-4-{[2-(4-methoxycarbonylphenyl)-6-methylpyridine-3-carbonyl]amino}phenyl)butyryloxy]-5-methylisophthalic acid dimethyl ester] as the compound, how does the remaining at 10 min [1] read?
**A.** 98%

**Q.** What about the remaining at 1 h [1] of the same compound?
**A.** 97%

**Q.** And the remaining at 10 min [2]?
**A.** 2%

**Q.** What about the remaining at 1 h [2] of the same compound?
**A.** 0%

**Q.** And the remaining at 10 min [3]?
**A.** 34%

**Q.** And the remaining at 1 h [3]?
**A.** 0%

**Q.** For `COC(=O)c1ccc(OC(=O)CCCc2ccc(NC(=O)c3ccccc3-c3ccc(C(=O)OC)cc3)c(C(=O)N(C)C)c2)cc1` [Compound 4-3, 2'-{2-dimethylcarbamoyl-4-[3-(4-methoxycarbonylphenoxycarbonyl)propyl]phenylcarbamoyl}biphenyl-4-carboxylic acid methyl ester], which remaining at 10 min [1] is on record?
**A.** 101%

**Q.** And the remaining at 1 h [1]?
**A.** 102%

**Q.** And the remaining at 10 min [2]?
**A.** 1%

**Q.** What about the remaining at 1 h [2] of the same compound?
**A.** 0%

**Q.** What about the remaining at 10 min [3] of the same compound?
**A.** 0%

**Q.** And the remaining at 1 h [3]?
**A.** 0%

**Q.** For `COC(=O)c1ccc(-c2nc(C)ccc2C(=O)Nc2ccc(CCCC(=O)Oc3c(Cl)cc(C(=O)OC)cc3OC)cc2C(=O)N(C)C)cc1` [Compound 4-4, 3-chloro-4-[4-(3-dimethylcarbamoyl-4-{[2-(4-methoxycarbonylphenyl)-6-methylpyridine-3-carbonyl]amino}phenyl)butyryloxy]-5-methoxybenzoic acid methyl ester], which remaining at 10 min [1] is on record?
**A.** 99%

**Q.** And the remaining at 1 h [1]?
**A.** 97%

**Q.** What about the remaining at 10 min [2] of the same compound?
**A.** 4%

**Q.** And the remaining at 1 h [2]?
**A.** 0%

**Q.** And the remaining at 10 min [3]?
**A.** 0%

**Q.** And the remaining at 1 h [3]?
**A.** 0%

From EP1803452A1, “ESTER DERIVATIVE AND PHARMACEUTICAL USE THEREOF” (Japan Tobacco, Inc., priority 2004, dated 2006)
